US20090239846A1, “Novel Compounds” (Glaxo Group Limited, priority 2005, published 2009)
pIC50: −log10 of the molar value. Counter-ions that a name gives are not always drawn. Blank lines part the entries; values can stand above or below the molecule they belong to.

How the values were obtained:
Recombinant human p38α = biological target: T1, Recombinant human p38α (Homo sapiens, UniProt Q16539); assay: Fluorescence anisotropy kinase binding assay (standard or low volume); settings: 12 nM p38α, 5 nM fluorescent ligand
T1 construct: GST; made in house
T1 sequence (Q16539 whole entry): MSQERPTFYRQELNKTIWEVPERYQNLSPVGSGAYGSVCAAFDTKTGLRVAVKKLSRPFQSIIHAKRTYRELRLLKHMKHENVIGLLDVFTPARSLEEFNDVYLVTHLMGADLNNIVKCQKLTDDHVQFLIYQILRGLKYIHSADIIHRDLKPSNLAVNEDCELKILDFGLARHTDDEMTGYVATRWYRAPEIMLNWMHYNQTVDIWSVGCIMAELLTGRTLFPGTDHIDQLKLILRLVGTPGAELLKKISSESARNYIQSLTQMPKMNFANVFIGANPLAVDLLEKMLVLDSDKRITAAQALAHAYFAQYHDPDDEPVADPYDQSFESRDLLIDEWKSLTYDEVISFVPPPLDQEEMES
Source text: (§1) The concentration of kinase enzyme should preferably be >2×Kf. The concentration of fluorescent ligand required will depend on the instrumentation used, and the fluorescent and physicochemical properties. The concentration used must be lower than the concentration of kinase enzyme, and preferably less than half the kinase enzyme concentration.
The fluorescent ligand is the following compound:
[drawing 329] • which is derived from 5-[2-(4-aminomethylphenyl)-5-pyridin-4-yl-1H-imidazol-4-yl]-2-chlorophenol and rhodamine green. Recombinant human p38α was expressed as a GST-tagged protein. To activate this protein, 3.5 μM unactivated p38α was incubated in 50 mM Tris-HCl pH 7.5, 0.1 mM EGTA, 0.1% 2-mercaptoethanol, 0.1 mM sodium vanadate, 10 mM MgAc, 0.1 mM ATP with 200 nM MBP-MKK6 DD at 30 degrees for 30 mins. Following activation p38α was re-purified and the activity assessed using a standard filter-binding assay. Protocol: All components are dissolved in buffer of composition 62.5 mM HEPES, pH 7.5, 1.25 mM CHAPS, 1 mM DTT, 12.5 mM MgCl2 with final concentrations of 12 nM p38α and 5 nM fluorescent ligand. 30 μl of this reaction mixture is added to wells containing 1 μl of various concentrations of test compound (0.28 nM-16.6 μM final) or DMSO vehicle (3% final) in NUNC 384 well black microtitre plate and equilibrated for 30-60 mins at room temperature. Fluorescence anisotropy is read in Molecular Devices Acquest (excitation 485 nm/emission 535 nm). Definitions: Ki=dissociation constant for inhibitor binding • Kf=dissociation constant for fluorescent ligand binding
as §1, with “2×Kf.” for “>2×Kf.”, “concentration. The fluorescent ligand is the following compound:” for “concentration.”
which is derived from 5-[2-(4-aminomethylphenyl)-5-pyridin-4-yl-1H-imidazol-4-yl]-2-chlorophenol and rhodamine green. Recombinant human p38α was expressed as a GST-tagged protein. To activate this protein, 3.5 μM unactivated p38α was incubated in 50 mM Tris-HCl pH 7.5, 0.1 mM EGTA, 0.1% 2-mercaptoethanol, 0.1 mM sodium vanadate, 10 mM MgAc, 0.1 mM ATP with 200 nM MBP-MKK6 DD at 30 degrees for 30 mins. Following activation p38α was re-purified and the activity assessed using a standard filter-binding assay. Protocol: All components are dissolved in buffer of composition 62.5 mM HEPES, pH 7.5, 1.25 mM CHAPS, 1 mM DTT, 12.5 mM MgCl2 with final concentrations of 12 nM p38α and 5 nM fluorescent ligand. […] of this reaction mixture is added to wells containing 0.1 μl of various concentrations of test compound (0.02 nM-25 μM final) or DMSO vehicle (1.7% final) in Greiner low volume 384 well black microtitre plate and equilibrated for 30-60 mins at room temperature. Fluorescence anisotropy is read in Molecular Devices Acquest (excitation 485 nm/emission 535 nm). Definitions: Ki dissociation constant for inhibitor binding • Kf=dissociation constant for fluorescent ligand binding It is noted that there are two assay formats shown above for the Fluorescence anisotropy kinase binding assay. The only difference between these two assays is the volume used and the plate type. […] The results described herein may have been performed in either assay format and are not differentiated as to which.

[1] = system: influx of neutrophils to the lung in LPS-challenged rats; assay: Rat LPS neutrophilia model; type: in vivo; settings: LPS aerosol, lavage 4 hours later, in at least one of the range of conditions tested, significance p<0.05
Experimental: The effect of compounds on the influx of neutrophils to the lung in LPS-challenged rats is evaluated as follows. The test compound is suspended in one of the following solutions: 0.5% tween 80/PBS, 0.5% tween 80/saline, 10% EtOH/saline (with pH adjusted to 2.0, or 8.0 with HCl, or unadjusted), Saline (pH 2.0, 6.5 or 8.0, 0.5% Tragacanth, 1% DMSO/20% Encapsin/Saline, or acidified 5% Tragacanth. The suspension process may be aided by the use of a glass homogenizer. For intratracheal administration, the animals are anesthetized with inhaled isoflurane and placed in a supine position, the trachea is intubated with a steel gavage needle (1.5 inch, 22 gauge, small ball) or a Penn-Century Microsprayer Aerosolizer (model IA-LB) and 200 ul of dosing solution is delivered. The animals are visually monitored during the recovery process, which typically occurs within two minutes.
Rats treated with compound or vehicle (15 min-24 hours pretreatment) are exposed to an LPS aerosol (100 ug/ml) for 15 min. Four hours later the rats are euthanized with pentobarbital (100 mg/kg, i.p.) and the airways are lavaged with 5 washes of 5 ml of phosphate buffered saline. The harvested cells are stained (Diffquick) and counted to determine total and differential cell data. In a typical study, macrophages represent 40-70% of the total cells, and polymorphonuclear cells 30-60% of the total cells. Inhibition of neutrophil levels relative to no compound controls is calculated based on the differential counts.
The assay has varying conditions, such as concentration, pretreat time, form of the compound (crystalline, amorphous, salts, micronised), and a wet or dry application of the compound.
The data is obtained as % inhibition using a particular concentration and pretreat time.

[2] = system: IL-8 production by human neutrophils; assay: TNF-stimulated IL-8 production from human neutrophils; type: cell-based; settings: Neutrophil, bound, not more than 50% inhibition at 100 nM, read-out: IC50

SMILES: Cc1ccc(C(=O)Nc2ccc(F)cc2)cc1-c1nc(N2CCC(N3CCCC3)CC2)nc2c1CNC(=O)N2c1c(F)cccc1F [86(c), 3-{8-(2,6-difluorophenyl)-7-oxo-2-[4-(1-pyrrolidinyl)-1-piperidinyl]-5,6,7,8-tetrahydropyrimido[4,5-d]pyrimidin-4-yl}-N-(4-fluorophenyl)-4-methylbenzamide]
active in the assay (pIC50, p38α binding) (Recombinant human p38α): active | inhibition of neutrophilia [1]: statistically nonsignificant inhibition of neutrophilia

pIC50 [2]: < 7.00
SMILES: CCCNC(=O)c1ccc(C)c(-c2nc(NCCCNCC)nc3c2CNC(=O)N3c2c(F)cccc2F)c1 [230(b), 3-(8-(2,6-difluorophenyl)-2-{[3-(ethylamino)propyl]amino}-7-oxo-5,6,7,8-tetrahydropyrimido[4,5-d]pyrimidin-4-yl)-4-methyl-N-propylbenzamide trifluoroacetate]

SMILES: Cc1ccc(C(=O)Nc2ccc(F)cc2)cc1-c1nc(N(C)CCN(C)C)nc2c1CNC(=O)N2c1c(F)cccc1F [Example 32, 3-{8-(2,6-difluorophenyl)-2-[[2-(dimethylamino)ethyl](methyl)amino]-7-oxo-5,6,7,8-tetrahydropyrimido[4,5-d]pyrimidin-4-yl}-N-(4-fluorophenyl)-4-methylbenzamide]
active in the assay (pIC50, p38α binding) (Recombinant human p38α): active | inhibition of neutrophilia [1]: statistically nonsignificant inhibition of neutrophilia

SMILES: Cc1ccc(C(=O)Nc2ccc(F)cc2)cc1-c1nc(NCCN(C)C)nc2c1CNC(=O)N2c1c(F)cccc1F [8(c), 3-(8-(2,6-difluorophenyl)-2-{[2-(dimethylamino)ethyl]amino}-7-oxo-5,6,7,8-tetrahydropyrimido[4,5-d]-pyrimidin-4-yl)-N-(4-fluorophenyl)-4-methylbenzamide]
active in the assay (pIC50, p38α binding) (Recombinant human p38α): active | inhibition of neutrophilia [1]: statistically significant inhibition of neutrophilia

pIC50 [2]: < 7.00
SMILES: Cc1ccc(C(=O)NCC(C)(C)C)cc1-c1nc(NCCN(C)C)nc2c1CNC(=O)N2c1c(F)cccc1F [Example 125, 3-(8-(2,6-difluorophenyl)-2-{[2-(dimethylamino)ethyl]amino}-7-oxo-5,6,7,8-tetrahydropyrimido[4,5-d]pyrimidin-4-yl)-N-(2,2-dimethylpropyl)-4-methylbenzamide]

pIC50 [2]: < 7.00
SMILES: CCN(CC)CCCNc1nc(-c2cc(C(=O)O)ccc2C)c2c(n1)N(c1c(F)cccc1F)C(=O)NC2 [228(b), 3-[2-{[3-(diethylamino)propyl]amino}-8-(2,6-difluorophenyl)-7-oxo-5,6,7,8-tetrahydropyrimido[4,5-d]pyrimidin-4-yl]-4-methylbenzoic acid]

SMILES: Cc1ccc(C(=O)Nc2ccc(F)cc2)cc1-c1nc(N2CCC(N3CCCCC3)CC2)nc2c1CNC(=O)N2c1c(F)cccc1F [87(b), 3-[2-(1,4′-bipiperidin-1′-yl)-8-(2,6-difluorophenyl)-7-oxo-5,6,7,8-tetrahydropyrimido[4,5-d]pyrimidin-4-yl]-N-(4-fluorophenyl)-4-methylbenzamide]
active in the assay (pIC50, p38α binding) (Recombinant human p38α): active | inhibition of neutrophilia [1]: statistically nonsignificant inhibition of neutrophilia

SMILES: CSc1nc(-c2cc(NC(=O)c3ccc(C)c(F)c3)ccc2C)c2c(n1)N(c1c(F)cccc1F)C(=O)NC2 [23(c), N-{3-[8-(2,6-difluorophenyl)-2-(methylthio)-7-oxo-5,6,7,8-tetrahydropyrimido[4,5-d]pyrimidin-4-yl]-4-methylphenyl}-3-fluoro-4-methylbenzamide]
active in the assay (pIC50, p38α binding) (Recombinant human p38α): active | inhibition of neutrophilia [1]: inactive

SMILES: CSc1nc(-c2cc(NC(=O)c3ccsc3)ccc2C)c2c(n1)N(c1c(F)cccc1F)C(=O)NC2 [7(c), N-{3-[8-(2,6-Difluorophenyl)-2-(methylthio)-7-oxo-5,6,7,8-tetrahydropyrimido[4,5-d]pyrimidin-4-yl]-4-methylphenyl}-3-thiophenecarboxamide]
active in the assay (pIC50, p38α binding) (Recombinant human p38α): active | inhibition of neutrophilia [1]: inactive

SMILES: CCCNC(=O)c1ccc(C)c(-c2nc(NCCCN(CC)CC)nc3c2CNC(=O)N3c2c(F)cccc2F)c1 [29(c), 3-[2-{[3-(diethylamino)propyl]amino}-8-(2,6-difluorophenyl)-7-oxo-5,6,7,8-tetrahydropyrimido[4,5-d]pyrimidin-4-yl]-4-methyl-N-propylbenzamide]
active in the assay (pIC50, p38α binding) (Recombinant human p38α): active | inhibition of neutrophilia [1]: statistically significant inhibition of neutrophilia

SMILES: Cc1ccc(C(=O)NC(C)C)cc1-c1nc(N(C)CCCN(C)C)nc2c1CNC(=O)N2c1c(F)cccc1F [34(d), 3-{8-(2,6-difluorophenyl)-2-[[3-(dimethylamino)propyl](methyl)amino]-7-oxo-5,6,7,8-tetrahydropyrimido[4,5-d]pyrimidin-4-yl}-4-methyl-N-(1-methylethyl)benzamide]
active in the assay (pIC50, p38α binding) (Recombinant human p38α): active | inhibition of neutrophilia [1]: statistically nonsignificant inhibition of neutrophilia

SMILES: Cc1ccc(C(=O)Nc2nccs2)cc1-c1nc(NCCN(C)C)nc2c1CNC(=O)N2c1c(F)cccc1F [118(c), 3-(8-(2,6-difluorophenyl)-2-{[2-(dimethylamino)ethyl]amino}-7-oxo-5,6,7,8-tetrahydropyrimido[4,5-d]pyrimidin-4-yl)-4-methyl-N-1,3-thiazol-2-ylbenzamide]
active in the assay (pIC50, p38α binding) (Recombinant human p38α): active | inhibition of neutrophilia [1]: statistically significant inhibition of neutrophilia

SMILES: Cc1ccc(C(=O)Nc2ccccc2)cc1-c1nc(NCCN(C)C)nc2c1CNC(=O)N2c1c(F)cccc1F [Example 137, 3-(8-(2,6-difluorophenyl)-2-{[2-(dimethylamino)ethyl]amino}-7-oxo-5,6,7,8-tetrahydropyrimido[4,5-d]pyrimidin-4-yl)-4-methyl-N-phenylbenzamide]
inhibition of neutrophilia [1]: statistically significant inhibition of neutrophilia

SMILES: Cc1ccc(C(=O)Nc2ccc(F)c(F)c2)cc1-c1nc(NCCN(C)C)nc2c1CNC(=O)N2c1c(F)cccc1F [Example 138, N-(3,4-difluorophenyl)-3-(8-(2,6-difluorophenyl)-2-{[2-(dimethylamino)-ethyl]amino}-7-oxo-5,6,7,8-tetrahydropyrimido[4,5-d]pyrimidin-4-yl)-4-methylbenzamide]
inhibition of neutrophilia [1]: statistically significant inhibition of neutrophilia

SMILES: Cc1ccc(C(=O)Nc2ccc(F)cc2)cc1-c1nc(N(C)CCCN(C)C)nc2c1CNC(=O)N2c1c(F)cccc1F [Example 9]
inhibition of neutrophilia [1]: statistically nonsignificant inhibition of neutrophilia
